Measurements: article PMC4603303, “Activity of Novel Synthetic Peptides against Candida albicans” (Scientific Reports, 2015)
Values after ≈ are worked out from the molar mass of the structure shown.

Tests used:
[1] = system: C. albicans SC5314; assay: Time killing assay; format: cell-based, Candida albicans; conditions: 2× MIC
Description: A fungal suspension was adjusted to a 0.5 McFarland turbidity standard with cell density of 1 × 10^6 to 5 × 10^6 cells/ml. 100 μL of adjusted yeast suspension was exposed to 900 μL of RPMI medium containing peptide, yielding a starting inoculum of approximately 10^5 cells/ml. The solutions were incubated at 37°C with agitation. At the predetermined time interval of 0, 1, 2, 4 and 6 hours, 10 μL or 30 μL of the samples were removed, serially diluted with phosphate-buffered saline (PBS) and plated on SDA plates to allow colony counts after 24 hours of incubation. Controls for yeast growth and antifungal agents were also performed. The lower limit of accurate and reproducible quantitation was 100 CFU/ml. Results were obtained from three independent experiments.

[2] = system: Candida krusei ATCC 6258; assay: MIC, broth microdilution (CLSI M27-A2); format: cell-based; conditions: Pichia kudriavzevii, ATCC6258; C. krusei ATCC 6258; RPMI 1640-MOPS, 48 h, 37°C; lowest concentration inhibiting 90% growth; three times in duplicate; read-out: Minimum Inhibitory Concentration (MIC)
Description: (§1) C. albicans strains SC5314 and ATCC 90028, C. krusei ATCC 6258 and C. parapsilosis ATCC 22019 were used in the study. The strains were stored at −80°C in nutrient broth supplemented with 2.0% glycerol stock. Prior to experimentation, each strain was streaked for single colonies on Sabouraud Dextrose (SDA) agar plates and incubated overnight at 37°C.
(§2) Antifungal activity of the designed peptides was determined according to a standardized broth microdilution method (Clinical and Laboratory Standards Institute (CLSI) document M27-A2). Briefly, the yeast colonies from 24- hour-old cultures of Candida species were picked and resuspended in 5 mL of sterile 0.145 mol/L saline and adjusted to cell density of 1 × 10^6 to 5 × 10^6 cells/ml. The yeast stock suspension was then diluted to obtain a starting inoculum of 5.0 × 10^2 to 2.5 × 10^3 cells/ml. […] The drugs were dissolved in DMSO and prepared to a stock concentration of 25 mg/L and 50 mg/L, respectively. […] 100 μL of standardized yeast suspension was then added to each well. Plates were incubated for 48 hours at 37°C. The minimum inhibitory concentration (MIC) was defined as the lowest concentration that inhibited 90% growth of Candida species. The MICs were determined three times and each time in duplicate.

[3] = system: Candida albicans SC 5314; assay: MIC, broth microdilution (CLSI M27-A2); format: cell-based; conditions: Candida albicans, SC5314; C. albicans SC 5314; RPMI 1640-MOPS, 48 h, 37°C; lowest concentration inhibiting 90% growth; three times in duplicate; read-out: Minimum Inhibitory Concentration (MIC)
Description: as §1, §2

[4] = system: Candida parapsilosis ATCC 22019; assay: MIC, broth microdilution (CLSI M27-A2); format: cell-based; conditions: Lodderomyces parapsilosis, ATCC22019; C. parapsilosis ATCC 22019; RPMI 1640-MOPS, 48 h, 37°C; lowest concentration inhibiting 90% growth; three times in duplicate; read-out: Minimum Inhibitory Concentration (MIC)
Description: as §1, §2

[5] = system: Candida albicans ATCC 90028; assay: MIC, broth microdilution (CLSI M27-A2); format: cell-based; conditions: Candida albicans, ATCC90028; C. albicans ATCC 90028; RPMI 1640-MOPS, 48 h, 37°C; lowest concentration inhibiting 90% growth; three times in duplicate; read-out: Minimum Inhibitory Concentration (MIC)
Description: as §1, §2

[6] = system: Candida strains; assay: MIC, broth microdilution, range stated over several Candida strains; format: cell-based, Candida spp.
Description: as §1, §2

[7] = system: C. albicans SC5314 biofilms; assay: Biofilm reduction assay (XTT); format: cell-based, Candida albicans; conditions: minimum concentration giving 50% reduction of viability of 24 h-old biofilm, 24 h treatment, 1-4× MIC tested
Description: Biofilms of C. albicans were formed on commercially available pre-sterilized, polystyrene, flat bottomed 96 well microtitre plates as described by Jin et al with modification. Firstly, a standardized yeast suspension (10^7 cells/ml) of C. albicans SC5314 was prepared by suspending colonies from 24-hours old culture in RPMI 1640 medium and adjusted to an optical density of 0.38–0.39 at 520 nm. 100 μL of yeast suspension was dispensed into each well of a microtitre plate using a multichannel pipette and the plates were incubated in a shaking incubator at 37°C with 75 rpm for 90 minutes to allow adherence of yeast on the surface of each well. After the adhesion phase, the non-adherent cells were removed and each well was washed twice with 150 μL PBS. 100 μL of RPMI 1640 medium was transferred to each washed well and the plates were incubated at 37°C in a shaking incubator at 75 rpm for 24 hours to allow biofilm formation. Following biofilm phase, the medium was aspirated and each well was washed twice gently with 200 μL PBS to remove non-adherent cells. Residual PBS was removed by inverting the plates over an absorbent paper before addition of peptides. […] Antifungal agent-free wells and biofilm-free wells were included as positive and negative controls. After treatment with peptides, the medium was removed and each well was washed twice with 200 μL PBS. The biofilm formation was quantified by using XTT reduction assay as described below. Each experiment was repeated three times in duplicate.
XTT reduction assay was performed according to the method adapted from Jin et al.[44] Briefly, XTT (Sigma) was dissolved to a concentration of 1 mg/ml using sterile PBS. XTT solution was then filter-sterilized using a 0.22 μm-pore-size filter and kept at −70°C prior to use. 0.4 mM menadione solution was prepared by dissolving menadione (Sigma) with acetone. The menadione solution was filter-sterilized and kept at −70°C before use. Prior to each assay, XTT solution was thawed and mixed with menadione solution at a volume ratio of 20:1. After washing, a total volume of 200 μL of XTT-menadione mixture (158 μL of PBS, 40 μL of XTT and 2 μL of menadione) was added to each prewashed biofilm and control wells. The plates were incubated in the dark for 2 hours at 37°C. 100 μL of the solution was transferred to new wells and the colorimetric change in the solution was measured using a microtiter plate reader at 490 nm. Antibiofilm activity of the peptides and conventional antifungals was expressed as the biofilm-eradicating concentration 2 (BEC-2), which is defined as the minimum concentration of the peptides resulting in 50% reduction of the biofilm viability compared to the growth control.

[8] = system: Het-1A cell line; assay: cells; conditions: Homo sapiens, HET-1A
Description: (§3) The human normal vaginal epithelial cell line VK2/E6E7 (ATCC® CRL-2616™) and human normal esophagus epithelial cell line Het-1A (ATCC® CRL-2692™) were used for cytotoxicity testing. VK2/E6E7 cell line was grown in Keratinocyte-Serum Free medium (GIBCO-BRL 17005-042) supplemented with 0.1 ng/ml human recombinant EGF, 0.05 mg/ml bovine pituitary extract, and 44.1 mg/L calcium chloride. […] Cell viability was measured by using CellTiter 96® Aqueous Non-Radioactive Cell Proliferation Assay (Promega, USA) and the colourimetric changes were determined at 490 nm using a microplate reader. […] Results were recorded by averaging three repeated experiments and each experiment was performed in duplicate.

[9] = system: VK2/E6E7 cell line; assay: cells; conditions: Homo sapiens
Description: as §3

For OC(Cn1cncn1)(Cn1cncn1)c1ccc(F)cc1F [Fluconazole, reference compound], the “reduction in yeast growth” value [1] was over 99.9%, the MIC [2] was 64 µg/mL (≈ 209 µM) and the MIC [3] was 1 µg/mL (≈ 3.27 µM). For the same compound, the MIC [4] was 1 µg/mL (≈ 3.27 µM), the MIC [5] was 2 µg/mL (≈ 6.53 µM) and the “MIC values, range” value ([6]; range for two C. albicans strains and C. parapsilosis) was 1 to 2 µg/mL. For the same compound, the BEC-2 values [7] was over 4 mg/L and the BEC-2 values ([7]; listed as fluconazole) was over 4 mg/L.
With C[C@@H]1[C@H](O)[C@@H](C)/C=C/C=C/C=C/C=C/C=C/C=C/C=C/[C@H](O[C@@H]2O[C@H](C)[C@@H](O)[C@H](N)[C@@H]2O)C[C@@H]2O[C@](O)(C[C@@H](O)C[C@@H](O)[C@H](O)CC[C@@H](O)C[C@@H](O)CC(=O)O[C@H]1C)C[C@H](O)[C@H]2C(=O)O [Amphotericin B, reference compound] the “% killing” value ([1]; within 2 hours) was over 99.99%, the “mean log reduction in viable cells” value ([1]; within 2 hours, RPMI, 37°C, mean ± SD of three experiments) was 5.44 ± 0.07 log CFU/mL and the MIC [2] was 1 µg/mL (≈ 1.08 µM). The MIC [3] was 1 µg/mL (≈ 1.08 µM), the MIC [4] was 1 µg/mL (≈ 1.08 µM) and the MIC [5] was 0.5 µg/mL (≈ 0.541 µM). For the same compound, the “MIC values, range” value ([6]; range against four Candida strains (C. albicans and non-albicans species)) was 0.5 to 1 µg/mL, the IC50 ([8]; 24 h) was 9.91 ± 3.35 µg/mL (≈ 10.7 µM) and the IC50 ([8]; 48 h) was 7.78 ± 1.7 µg/mL (≈ 8.42 µM). It also gave an IC50 ([8]; 72 h) of 9.1 ± 0.98 µg/mL (≈ 9.85 µM), an IC50 ([9]; 24 h) of 8.13 ± 4.54 µg/mL (≈ 8.8 µM) and an IC50 ([9]; 48 h) of 7.64 ± 2.95 µg/mL (≈ 8.27 µM). For the same compound, the IC50 ([9]; 72 h) was 15.3 ± 3.72 µg/mL (≈ 16.6 µM), the BEC-2 values [7] was under 1 mg/L and the BEC-2 values ([7]; listed as amphotericin B) was over 1 mg/L.
